Source: patent US9605008B2, “Benzyl-1H-pyrazolo[3,4-b]pyridines and use thereof” (BAYER PHARMA AKTIENGESELLSCHAFT, priority 2013, dated 2017)

Experiments:
[1] = target: human phosphodiesterase 5 (PDE 5) (Homo sapiens (Human), UniProt O76074); assay: Inhibition of human phosphodiesterase 5 (PDE 5); format: biochemical; settings: PDE 5 preparation from human platelets; [8-3H] cGMP substrate, SPA; in some cases means of individual determinations
Method: B-3. Inhibition of Human Phosphodiesterase 5 (PDE 5)
PDE 5 preparations are obtained from human platelets by disruption (Microfluidizer®, 800 bar, 3 passes), followed by centrifugation (75000 g, 60 min, 4° C.) and ion exchange chromatography of the supernatant on a Mono Q 10/10 column (linear sodium chloride gradient, elution with a 0.2-0.3M solution of sodium chloride in buffer (20 mM Hepes pH 7.2, 2 mM magnesium chloride). Fractions having PDE 5 activity are combined (PDE 5 preparation) and stored at −80° C.
To determine their in vitro action on human PDE 5, the test substances are dissolved in 100% DMSO and serially diluted. Typically, dilution series (1:3) from 200 μM to 0.091 μM are prepared (resulting final concentrations in the test: 4 μM to 0.0018 μM). In each case 2 μl of the diluted substance solutions are placed into the wells of microtitre plates (Isoplate-96/200W; Perkin Elmer). Subsequently, 50 μl of a dilution of the above-described PDE 5 preparation are added. The dilution of the PDE 5 preparation is chosen such that during the later incubation less than 70% of the substrate are converted (typical dilution: 1:100; dilution buffer: 50 mM tris/hydrochloric acid pH 7.5, 8.3 mM magnesium chloride, 1.7 mM EDTA, 0.2% BSA). The substrate, [8-^3H] cyclic guanosine-3′,5′-monophosphate (1 μCi/μl; Perkin Elmer) is diluted 1:2000 with assay buffer (50 mM tris/hydrochloric acid pH 7.5, 8.3 mM magnesium chloride, 1.7 mM EDTA) to a concentration of 0.0005 μCi/μl. By addition of 50 μl (0.025 μCi) of the diluted substrate, the enzyme reaction is finally started. The test mixtures are incubated at room temperature for 60 min and the reaction is stopped by adding 25 μl of a suspension of 18 mg/ml yttrium scintillation proximity beads in water (phosphodiesterase beads for SPA assays, RPNQ 0150, Perkin Elmer). The microtitre plates are sealed with a film and left to stand at room temperature for 60 min. Subsequently, the plates are analysed for 30 s per well in a Microbeta scintillation counter (Perkin Elmer). IC50 values are determined using the graphic plot of the substance concentration against percentage PDE 5 inhibition.

[2] = target: recombinant guanylate cyclase reporter cell line (Rattus norvegicus (Rat), UniProt P19686+P20595); assay: Effect on a recombinant guanylate cyclase reporter cell line; format: cell-based; settings: in some cases means of individual determinations
Chain of recombinant guanylate cyclase reporter cell line (P19686 whole entry): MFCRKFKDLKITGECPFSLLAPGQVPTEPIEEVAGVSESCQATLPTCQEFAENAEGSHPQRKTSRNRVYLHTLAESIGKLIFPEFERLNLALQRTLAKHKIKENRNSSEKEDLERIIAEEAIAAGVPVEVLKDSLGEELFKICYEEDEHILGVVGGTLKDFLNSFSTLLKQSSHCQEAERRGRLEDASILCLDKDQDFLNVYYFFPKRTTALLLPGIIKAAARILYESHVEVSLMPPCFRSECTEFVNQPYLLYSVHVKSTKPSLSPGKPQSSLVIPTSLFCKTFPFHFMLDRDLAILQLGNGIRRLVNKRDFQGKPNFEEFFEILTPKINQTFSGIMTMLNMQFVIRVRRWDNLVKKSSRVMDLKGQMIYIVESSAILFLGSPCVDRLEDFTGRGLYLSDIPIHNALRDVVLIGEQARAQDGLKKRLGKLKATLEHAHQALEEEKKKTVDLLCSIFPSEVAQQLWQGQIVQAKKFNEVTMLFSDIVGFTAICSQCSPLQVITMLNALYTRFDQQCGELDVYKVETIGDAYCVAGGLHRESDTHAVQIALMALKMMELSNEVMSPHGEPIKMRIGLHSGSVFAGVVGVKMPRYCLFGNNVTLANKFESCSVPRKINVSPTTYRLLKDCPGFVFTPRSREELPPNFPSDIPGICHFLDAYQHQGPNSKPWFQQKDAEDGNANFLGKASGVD
Chain of recombinant guanylate cyclase reporter cell line (P20595 whole entry): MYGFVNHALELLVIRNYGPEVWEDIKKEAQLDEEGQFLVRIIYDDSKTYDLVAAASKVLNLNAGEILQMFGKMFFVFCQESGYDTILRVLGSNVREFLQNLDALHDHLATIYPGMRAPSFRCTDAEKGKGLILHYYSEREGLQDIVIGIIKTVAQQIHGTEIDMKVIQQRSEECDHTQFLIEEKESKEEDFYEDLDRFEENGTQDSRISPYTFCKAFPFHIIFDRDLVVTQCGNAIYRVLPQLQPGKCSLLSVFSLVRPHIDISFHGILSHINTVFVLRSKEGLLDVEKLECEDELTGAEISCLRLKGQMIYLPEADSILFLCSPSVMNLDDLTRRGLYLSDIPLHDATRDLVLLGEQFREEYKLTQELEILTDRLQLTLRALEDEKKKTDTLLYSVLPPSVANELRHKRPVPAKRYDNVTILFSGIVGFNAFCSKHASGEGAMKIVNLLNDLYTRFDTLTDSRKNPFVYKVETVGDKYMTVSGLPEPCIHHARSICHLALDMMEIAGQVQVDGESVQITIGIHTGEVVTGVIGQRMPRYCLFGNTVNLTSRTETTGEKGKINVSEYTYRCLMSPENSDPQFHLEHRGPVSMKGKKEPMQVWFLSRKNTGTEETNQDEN
Method: B-2. Effect on a Recombinant Guanylate Cyclase Reporter Cell Line
The cellular activity of the compounds according to the invention is determined using a recombinant guanylate cyclase reporter cell line, as described in F. Wunder et al., Anal. Biochem. 339, 104-112 (2005).
Representative values (MEC=minimum effective concentration) for the compounds according to the invention are shown in the table below (Table 1; in some cases as means of individual determinations): […]

Compound	IC50 [1]	MEC (minimum effective concentration) [2]
Cc1nc2c(cc1F)c(-c1nnc3c(n1)NC(=O)C3(C)C)nn2Cc1cccc(F)c1F [Example 1, 3-[1-(2,3-Difluorobenzyl)-5-fluoro-6-methyl-1H-pyrazolo[3,4-b]pyridin-3-yl]-7,7-dimethyl-5,7-dihydro-6H-pyrrolo[2,3-e][1,2,4]triazin-6-one]	5 nM	30 nM
Cc1nc2c(cc1F)c(-c1nnc3c(n1)[N-]C(=O)C3(C)C)nn2Cc1cccc(F)c1F.[Na+] [Example 2, Sodium 3-[1-(2,3-difluorobenzyl)-5-fluoro-6-methyl-1H-pyrazolo[3,4-b]pyridin-3-yl]-7,7-dimethyl-6-oxo-6,7-dihydropyrrolo[2,3-e][1,2,4]triazin-5-ide]	5 nM	30 nM
Cc1ccc(Cn2nc(-c3nnc4c(n3)NC(=O)C4(C)C)c3cc(F)c(C)nc32)c(F)c1 [Example 5, 3-[5-Fluoro-1-(2-fluoro-4-methylbenzyl)-6-methyl-1H-pyrazolo[3,4-b]pyridin-3-yl]-7,7-dimethyl-5,7-dihydro-6H-pyrrolo[2,3-e][1,2,4]triazin-6-one]	1.5 nM	100 nM
Cc1ccc(Cn2nc(-c3nnc4c(n3)NC(=O)C4(C)C)c3ccc(C)nc32)c(F)c1 [Example 6, 3-[1-(2-Fluoro-4-methylbenzyl)-6-methyl-1H-pyrazolo[3,4-b]pyridin-3-yl]-7,7-dimethyl-5,7-dihydro-6H-pyrrolo[2,3-e][1,2,4]triazin-6-one]	2 nM	200 nM
Cc1nc2c(cc1F)c(-c1nnc3c(n1)NC(=O)C3(C)C)nn2Cc1ccc(F)cc1F [Example 7, 3-[1-(2,4-Difluorobenzyl)-5-fluoro-6-methyl-1H-pyrazolo[3,4-b]pyridin-3-yl]-7,7-dimethyl-5,7-dihydro-6H-pyrrolo[2,3-e][1,2,4]triazin-6-one]	21 nM	100 nM
Cc1ccc2c(-c3nnc4c(n3)NC(=O)C4(C)C)nn(Cc3ccc(F)cc3F)c2n1 [Example 8, 3-[1-(2,4-Difluorobenzyl)-6-methyl-1H-pyrazolo[3,4-b]pyridin-3-yl]-7,7-dimethyl-5,7-dihydro-6H-pyrrolo[2,3-e][1,2,4]triazin-6-one]	34 nM	300 nM
Cc1nc2c(cc1F)c(-c1nnc3c(n1)NC(=O)C3(C)C)nn2Cc1ccc(Cl)cc1F [Example 9, 3-[1-(4-Chloro-2-fluorobenzyl)-5-fluoro-6-methyl-1H-pyrazolo[3,4-b]pyridin-3-yl]-7,7-dimethyl-5,7-dihydro-6H-pyrrolo[2,3-e][1,2,4]triazin-6-one]	6 nM	300 nM
Cc1ccc2c(-c3nnc4c(n3)NC(=O)C4(C)C)nn(Cc3ccc(Cl)cc3F)c2n1 [Example 10, 3-[1-(4-Chloro-2-fluorobenzyl)-6-methyl-1H-pyrazolo[3,4-b]pyridin-3-yl]-7,7-dimethyl-5,7-dihydro-6H-pyrrolo[2,3-e][1,2,4]triazin-6-one]	4.5 nM	300 nM
Cc1nc2c(cc1F)c(-c1nnc3c(n1)NC(=O)C3(C)C)nn2Cc1c(F)ccc(F)c1F [Example 11, 3-[5-Fluoro-6-methyl-1-(2,3,6-trifluorobenzyl)-1H-pyrazolo[3,4-b]pyridin-3-yl]-7,7-dimethyl-5,7-dihydro-6H-pyrrolo[2,3-e][1,2,4]triazin-6-one]	27 nM	30 nM
Cc1ccc2c(-c3nnc4c(n3)NC(=O)C4(C)C)nn(Cc3c(F)ccc(F)c3F)c2n1 [Example 12, 7,7-Dimethyl-3-[6-methyl-1-(2,3,6-trifluorobenzyl)-1H-pyrazolo[3,4-b]pyridin-3-yl]-5,7-dihydro-6H-pyrrolo[2,3-e][1,2,4]triazin-6-one]	21 nM	300 nM

Other lines, results leading:

IC50 [1]	MEC (minimum effective concentration) [2]	Compound
42 nM	100 nM	Cc1nc2c(cc1F)c(-c1nnc3c(n1)NC(=O)C3(C)C)nn2Cc1cccc(Cl)c1F [Example 13, 3-[1-(3-Chloro-2-fluorobenzyl)-5-fluoro-6-methyl-1H-pyrazolo[3,4-b]pyridin-3-yl]-7,7-dimethyl-5,7-dihydro-6H-pyrrolo[2,3-e][1,2,4]triazin-6-one]
63 nM	300 nM	Cc1ccc2c(-c3nnc4c(n3)NC(=O)C4(C)C)nn(Cc3cccc(Cl)c3F)c2n1 [Example 14, 3-[1-(3-Chloro-2-fluorobenzyl)-6-methyl-1H-pyrazolo[3,4-b]pyridin-3-yl]-7,7-dimethyl-5,7-dihydro-6H-pyrrolo[2,3-e][1,2,4]triazin-6-one]
67 nM	65 nM	Cc1nc2c(cc1F)c(-c1nnc3c(n1)NC(=O)C3(C)C)nn2Cc1c(F)cccc1F [Example 15, 3-[1-(2,6-Difluorobenzyl)-5-fluoro-6-methyl-1H-pyrazolo[3,4-b]pyridin-3-yl]-7,7-dimethyl-5,7-dihydro-6H-pyrrolo[2,3-e][1,2,4]triazin-6-one]
24 nM	300 nM	Cc1ccc2c(-c3nnc4c(n3)NC(=O)C4(C)C)nn(Cc3c(F)cccc3F)c2n1 [Example 16, 3-[1-(2,6-Difluorobenzyl)-6-methyl-1H-pyrazolo[3,4-b]pyridin-3-yl]-7,7-dimethyl-5,7-dihydro-6H-pyrrolo[2,3-e][1,2,4]triazin-6-one]
8 nM	300 nM	Cc1ccc(Cn2nc(-c3nnc4c(n3)NC(=O)C4(C)C)c3cc(F)c(C)nc32)cc1F [Example 17, 3-[5-Fluoro-1-(3-fluoro-4-methylbenzyl)-6-methyl-1H-pyrazolo[3,4-b]pyridin-3-yl]-7,7-dimethyl-5,7-dihydro-6H-pyrrolo[2,3-e][1,2,4]triazin-6-one]
10 nM	1000 nM	Cc1ccc2c(-c3nnc4c(n3)NC(=O)C4(C)C)nn(Cc3ccc(C)c(F)c3)c2n1 [Example 18, 3-[1-(3-Fluoro-4-methylbenzyl)-6-methyl-1H-pyrazolo[3,4-b]pyridin-3-yl]-7,7-dimethyl-5,7-dihydro-6H-pyrrolo[2,3-e][1,2,4]triazin-6-one]
0.25 nM	300 nM	Cc1ccc(Cn2nc(-c3nnc4c(n3)NC(=O)C4(C)C)c3cc(F)c(C)nc32)c(F)c1F [Example 19, 3-[1-(2,3-Difluoro-4-methylbenzyl)-5-fluoro-6-methyl-1H-pyrazolo[3,4-b]pyridin-3-yl]-7,7-dimethyl-5,7-dihydro-6H-pyrrolo[2,3-e][1,2,4]triazin-6-one]
0.65 nM	300 nM	Cc1ccc2c(-c3nnc4c(n3)NC(=O)C4(C)C)nn(Cc3ccc(C)c(F)c3F)c2n1 [Example 20, 3-[1-(2,3-Difluoro-4-methylbenzyl)-6-methyl-1H-pyrazolo[3,4-b]pyridin-3-yl]-7,7-dimethyl-5,7-dihydro-6H-pyrrolo[2,3-e][1,2,4]triazin-6-one]
16 nM	–	Cc1ccc(Cn2nc(-c3nnc4c(n3)NC(=O)C43CC3)c3ccc(C)nc32)c(F)c1 [Example 22, 3′-[1-(2-Fluoro-4-methylbenzyl)-6-methyl-1H-pyrazolo[3,4-b]pyridin-3-yl]spiro[cyclopropane-1,7′-pyrrolo[2,3-e][1,2,4]triazin]-6′(5′H)-one]
21 nM	300 nM	Cc1ccc2c(-c3nnc4c(n3)NC(=O)C43CC3)nn(Cc3cccc(F)c3F)c2n1 [Example 24, 3′-[1-(2,3-Difluorobenzyl)-6-methyl-1H-pyrazolo[3,4-b]pyridin-3-yl]spiro[cyclopropane-1,7′-pyrrolo[2,3-e][1,2,4]triazin]-6′(5′H)-one]
4 nM	300 nM	Cc1ccc2c(-c3nnc4c(n3)NC(=O)C43CC3)nn(Cc3ccc(C)c(F)c3F)c2n1 [Example 26, 3′-[1-(2,3-Difluoro-4-methylbenzyl)-6-methyl-1H-pyrazolo[3,4-b]pyridin-3-yl]spiro[cyclopropane-1,7′-pyrrolo[2,3-e][1,2,4]triazin]-6′(5′H)-one]
